ChEMBL document CHEMBL1268881, “Peripheral but crucial: a hydrophobic pocket (Tyr(706), Leu(337), and Met(336)) for potent and selective inhibition of neuronal nitric oxide synthase” (Bioorg Med Chem Lett, 2010)

Columns and labels:
Nitric oxide synthase 1 [1] = biological target: Nitric oxide synthase 1 (Homo sapiens, UniProt P29475); assay: Inhibition of human nNOS expressed in Escherichia coli assessed as inhibition of nitric oxide formation by hemoglobin capture assay
[2] = biological target: T1, Nitric oxide synthase, inducible (Mus musculus, UniProt P29477); assay: Inhibition of mouse iNOS expressed in Escherichia coli assessed as inhibition of nitric oxide formation by hemoglobin capture assay
T1 sequence (P29477 whole entry): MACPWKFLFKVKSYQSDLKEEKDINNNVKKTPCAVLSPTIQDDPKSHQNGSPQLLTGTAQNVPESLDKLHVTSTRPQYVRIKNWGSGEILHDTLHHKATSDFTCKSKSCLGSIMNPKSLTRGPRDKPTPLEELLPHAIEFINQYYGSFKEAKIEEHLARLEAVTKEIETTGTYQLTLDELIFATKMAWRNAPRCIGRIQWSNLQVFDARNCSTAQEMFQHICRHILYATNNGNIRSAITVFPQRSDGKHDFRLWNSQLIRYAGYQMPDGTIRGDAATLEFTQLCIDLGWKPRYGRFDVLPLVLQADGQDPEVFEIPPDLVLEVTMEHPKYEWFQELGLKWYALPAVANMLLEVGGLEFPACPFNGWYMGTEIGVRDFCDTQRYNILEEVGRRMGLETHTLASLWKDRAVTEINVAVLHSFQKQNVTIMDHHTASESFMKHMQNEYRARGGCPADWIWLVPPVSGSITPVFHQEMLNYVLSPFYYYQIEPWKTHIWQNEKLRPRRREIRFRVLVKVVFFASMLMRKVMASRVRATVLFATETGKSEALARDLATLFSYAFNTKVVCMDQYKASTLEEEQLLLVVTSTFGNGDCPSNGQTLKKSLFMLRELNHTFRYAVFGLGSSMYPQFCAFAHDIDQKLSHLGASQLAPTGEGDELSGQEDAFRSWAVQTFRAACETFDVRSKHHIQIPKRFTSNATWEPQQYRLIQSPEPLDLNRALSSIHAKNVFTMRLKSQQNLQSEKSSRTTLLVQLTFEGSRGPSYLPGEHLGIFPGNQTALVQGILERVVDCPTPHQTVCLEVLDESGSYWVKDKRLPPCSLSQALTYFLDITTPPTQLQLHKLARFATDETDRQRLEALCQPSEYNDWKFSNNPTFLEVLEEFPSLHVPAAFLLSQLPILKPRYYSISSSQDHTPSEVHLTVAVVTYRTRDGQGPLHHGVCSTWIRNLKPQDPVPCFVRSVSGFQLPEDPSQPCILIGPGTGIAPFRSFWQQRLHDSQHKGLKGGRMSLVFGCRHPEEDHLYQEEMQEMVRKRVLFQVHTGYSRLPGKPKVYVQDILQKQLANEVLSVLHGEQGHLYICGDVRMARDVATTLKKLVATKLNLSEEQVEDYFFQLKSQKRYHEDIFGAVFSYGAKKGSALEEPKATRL

Nitric oxide synthase 3 = biological target: T2, Nitric oxide synthase 3 (Bos taurus, UniProt P29473)
T2 sequence (P29473 whole entry): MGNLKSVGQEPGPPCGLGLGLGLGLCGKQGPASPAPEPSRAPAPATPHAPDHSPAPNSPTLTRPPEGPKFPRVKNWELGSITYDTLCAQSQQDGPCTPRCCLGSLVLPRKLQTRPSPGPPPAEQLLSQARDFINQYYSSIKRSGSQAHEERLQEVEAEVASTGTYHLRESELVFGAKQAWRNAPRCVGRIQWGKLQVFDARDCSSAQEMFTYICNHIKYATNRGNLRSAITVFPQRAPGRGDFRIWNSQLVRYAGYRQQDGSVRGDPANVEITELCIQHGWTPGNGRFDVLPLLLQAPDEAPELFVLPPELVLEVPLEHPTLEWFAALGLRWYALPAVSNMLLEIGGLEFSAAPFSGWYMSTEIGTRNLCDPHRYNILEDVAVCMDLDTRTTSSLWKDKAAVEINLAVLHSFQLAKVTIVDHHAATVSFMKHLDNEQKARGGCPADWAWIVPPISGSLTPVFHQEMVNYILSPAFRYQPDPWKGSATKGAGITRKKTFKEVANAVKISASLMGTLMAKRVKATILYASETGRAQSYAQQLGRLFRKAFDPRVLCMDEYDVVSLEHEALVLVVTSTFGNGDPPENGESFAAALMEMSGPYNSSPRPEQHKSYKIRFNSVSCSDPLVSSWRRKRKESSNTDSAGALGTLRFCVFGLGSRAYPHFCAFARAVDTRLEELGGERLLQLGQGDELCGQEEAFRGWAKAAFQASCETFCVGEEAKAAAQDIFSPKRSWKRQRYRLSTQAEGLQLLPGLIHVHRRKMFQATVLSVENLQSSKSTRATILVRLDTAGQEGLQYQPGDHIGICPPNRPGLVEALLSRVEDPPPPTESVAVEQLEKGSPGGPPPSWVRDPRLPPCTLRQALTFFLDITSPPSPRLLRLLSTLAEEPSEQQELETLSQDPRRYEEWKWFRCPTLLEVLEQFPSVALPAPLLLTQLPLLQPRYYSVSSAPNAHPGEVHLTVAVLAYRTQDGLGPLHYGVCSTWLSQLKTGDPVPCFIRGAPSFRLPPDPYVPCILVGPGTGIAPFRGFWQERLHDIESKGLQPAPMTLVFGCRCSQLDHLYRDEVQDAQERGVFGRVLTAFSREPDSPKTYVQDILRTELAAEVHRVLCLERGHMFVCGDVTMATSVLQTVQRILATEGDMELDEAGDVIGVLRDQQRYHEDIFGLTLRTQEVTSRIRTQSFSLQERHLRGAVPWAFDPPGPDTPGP
Description: Inhibition of bovine eNOS expressed in Escherichia coli assessed as inhibition of nitric oxide formation by hemoglobin capture assay

Nitric oxide synthase 1 [3] = biological target: Nitric oxide synthase 1 (Rattus norvegicus, UniProt P29476); assay: Inhibition of rat nNOS expressed in Escherichia coli assessed as inhibition of nitric oxide formation by hemoglobin capture assay
Chain of Nitric oxide synthase 1 (Rattus norvegicus, UniProt P29476) (P29476 whole entry): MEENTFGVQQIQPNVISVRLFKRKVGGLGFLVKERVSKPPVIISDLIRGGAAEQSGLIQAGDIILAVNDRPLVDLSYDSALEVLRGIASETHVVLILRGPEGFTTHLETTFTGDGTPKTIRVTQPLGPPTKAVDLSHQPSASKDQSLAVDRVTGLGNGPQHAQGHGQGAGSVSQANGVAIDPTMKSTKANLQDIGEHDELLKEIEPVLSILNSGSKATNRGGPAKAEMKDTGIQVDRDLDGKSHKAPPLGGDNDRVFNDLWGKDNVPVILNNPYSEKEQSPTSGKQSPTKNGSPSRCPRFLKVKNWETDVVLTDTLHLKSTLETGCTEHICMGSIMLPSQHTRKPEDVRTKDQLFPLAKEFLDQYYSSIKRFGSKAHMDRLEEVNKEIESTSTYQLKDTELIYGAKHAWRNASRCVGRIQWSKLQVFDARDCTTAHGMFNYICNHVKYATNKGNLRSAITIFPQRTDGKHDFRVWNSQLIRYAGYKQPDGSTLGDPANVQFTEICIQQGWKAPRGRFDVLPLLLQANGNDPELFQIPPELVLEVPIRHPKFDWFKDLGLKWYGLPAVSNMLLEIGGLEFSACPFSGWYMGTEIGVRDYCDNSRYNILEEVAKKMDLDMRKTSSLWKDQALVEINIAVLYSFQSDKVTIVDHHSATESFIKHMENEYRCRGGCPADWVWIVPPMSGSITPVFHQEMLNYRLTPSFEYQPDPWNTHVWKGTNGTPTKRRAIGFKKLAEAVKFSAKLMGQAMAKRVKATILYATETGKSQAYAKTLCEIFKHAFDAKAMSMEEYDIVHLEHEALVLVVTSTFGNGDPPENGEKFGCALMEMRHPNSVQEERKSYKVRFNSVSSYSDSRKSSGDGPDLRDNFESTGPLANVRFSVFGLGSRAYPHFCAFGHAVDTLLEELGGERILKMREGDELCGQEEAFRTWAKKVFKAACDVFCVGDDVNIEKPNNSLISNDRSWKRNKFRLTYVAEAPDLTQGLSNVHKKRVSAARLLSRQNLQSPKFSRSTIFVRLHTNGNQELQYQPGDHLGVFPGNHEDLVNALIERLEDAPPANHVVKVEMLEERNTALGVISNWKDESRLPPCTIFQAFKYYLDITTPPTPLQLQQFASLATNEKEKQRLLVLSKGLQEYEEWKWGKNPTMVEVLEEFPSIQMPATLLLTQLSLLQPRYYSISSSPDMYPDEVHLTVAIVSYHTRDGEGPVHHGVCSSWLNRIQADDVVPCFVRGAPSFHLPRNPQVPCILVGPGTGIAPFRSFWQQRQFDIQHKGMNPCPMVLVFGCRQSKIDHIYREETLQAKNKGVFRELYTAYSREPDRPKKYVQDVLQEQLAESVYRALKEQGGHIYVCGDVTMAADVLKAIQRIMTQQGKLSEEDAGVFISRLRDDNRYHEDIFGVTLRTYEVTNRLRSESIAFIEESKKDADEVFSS

Chain of Nitric oxide synthase 1 (Homo sapiens, UniProt P29475) (P29475 whole entry): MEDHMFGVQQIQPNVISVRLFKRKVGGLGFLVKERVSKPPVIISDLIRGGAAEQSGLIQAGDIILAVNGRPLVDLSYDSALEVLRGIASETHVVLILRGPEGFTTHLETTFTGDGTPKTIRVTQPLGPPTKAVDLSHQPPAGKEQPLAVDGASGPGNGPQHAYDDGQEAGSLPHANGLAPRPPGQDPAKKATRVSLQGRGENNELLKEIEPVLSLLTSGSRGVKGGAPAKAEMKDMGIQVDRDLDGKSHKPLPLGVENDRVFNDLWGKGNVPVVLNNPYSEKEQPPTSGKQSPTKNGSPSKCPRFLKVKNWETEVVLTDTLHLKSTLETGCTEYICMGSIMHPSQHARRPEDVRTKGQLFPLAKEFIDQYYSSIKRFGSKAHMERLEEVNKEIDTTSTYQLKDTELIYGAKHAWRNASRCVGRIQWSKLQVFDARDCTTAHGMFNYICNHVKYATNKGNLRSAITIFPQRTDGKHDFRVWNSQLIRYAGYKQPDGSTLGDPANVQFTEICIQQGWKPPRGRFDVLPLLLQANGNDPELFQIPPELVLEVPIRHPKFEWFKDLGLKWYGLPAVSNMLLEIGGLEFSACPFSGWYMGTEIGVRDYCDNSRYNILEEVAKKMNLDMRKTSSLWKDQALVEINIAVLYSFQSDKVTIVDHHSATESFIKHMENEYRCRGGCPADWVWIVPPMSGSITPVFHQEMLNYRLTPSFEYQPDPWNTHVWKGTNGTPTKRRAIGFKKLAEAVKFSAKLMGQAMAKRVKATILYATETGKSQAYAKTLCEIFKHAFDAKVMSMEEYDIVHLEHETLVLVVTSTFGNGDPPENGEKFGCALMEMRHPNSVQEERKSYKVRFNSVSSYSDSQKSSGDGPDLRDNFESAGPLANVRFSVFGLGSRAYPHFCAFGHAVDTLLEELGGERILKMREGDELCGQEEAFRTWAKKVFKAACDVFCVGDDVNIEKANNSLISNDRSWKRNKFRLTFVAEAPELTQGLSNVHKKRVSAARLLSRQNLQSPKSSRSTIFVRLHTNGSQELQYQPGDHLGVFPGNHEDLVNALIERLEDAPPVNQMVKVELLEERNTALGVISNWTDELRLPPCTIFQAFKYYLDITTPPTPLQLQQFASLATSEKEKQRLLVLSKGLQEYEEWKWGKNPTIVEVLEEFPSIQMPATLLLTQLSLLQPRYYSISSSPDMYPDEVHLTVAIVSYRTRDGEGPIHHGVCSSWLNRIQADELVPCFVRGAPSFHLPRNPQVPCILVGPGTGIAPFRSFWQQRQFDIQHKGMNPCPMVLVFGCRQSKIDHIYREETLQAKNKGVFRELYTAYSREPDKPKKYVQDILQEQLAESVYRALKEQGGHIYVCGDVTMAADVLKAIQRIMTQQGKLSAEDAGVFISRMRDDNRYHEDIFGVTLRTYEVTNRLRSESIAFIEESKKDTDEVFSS

Row | Ki (Nitric oxide synthase 1 [1]) [nM] | Ki [2] [nM] | Ki (Nitric oxide synthase 3) [nM] | Ki (Nitric oxide synthase 1 [3]) [nM] | Compound
1 | 290 | 10000 | 58000 | 50 | Nc1cccc(C[C@@H]2CNC[C@@H]2OCCNCCc2cccc(F)c2)n1
2 | 1800 | 13200 | 59000 | 220 | Nc1cccc(C[C@H]2CNC[C@H]2OCCNCCc2cccc(F)c2)n1
3 | 490 | 21800 | 58000 | 110 | NC1=NC(C[C@@H]2CNC[C@@H]2OCCNCCc2cccc(F)c2)CCC1 (stereo partly drawn)
4 | 50 |  |  |  | Cc1cc(N)nc(C[C@@H]2CNC[C@@H]2OCCNCCc2cccc(F)c2)c1
